Test results published in patent US7723328B2, “Methods of facilitating cell survival using neurotrophin mimetics” (The University of North Carolina at Chapel Hill, priority 2005, dated 2010).
pEC50: −log10 of the molar value. “Also recorded” adds a separate entry of the source.

What was measured:
chicken DRG neuronal = test: Chicken DRG neuronal survival assay; format: cell-based; conditions: preliminary screening
[1] = tested on: E16-17 mouse hippocampal neurons; test: Hippocampal neuron survival (morphology plus MTT conversion); format: cell-based; conditions: for neurotrophic activity (neuron survival response): 48 h, counts normalized to 25 ng/ml BDNF or baseline, up to 5 nM
Protocol: (§1) Hippocampal neurons were prepared from E16-17 mouse embryos as previously described (Yang. T. et al. (2003) J Neurosci 23, 3353-3363). […] For studies employing p75^NTR+/+ and p75^NTR−/− neurons, mice carrying a mutation in exon 3 of the p75^NTR gene (Lee, K. F. et al. (1992) Cell 69, 737-749) were bred onto a B6 congenic background (>10 B6 backcrosses).
(§2) After 48 hours in culture, cell survival was assessed as previously described (Longo, F. M., Manthorpe. M., Xie. Y. M., Varon, S. (1997) J Neurosci Res 48, 1-17) using a combination of standard morphological criteria along with visual determination of whether a given cell converted MTT to its blue formazan product. The number of surviving neurons was determined by counting the total number of cells in each well that were both morphologically intact and filed with blue product (Longo F. M., Manthorpe. M., Xie, Y. M., Varon, S. (1997) J Neurosci Res 48, 1-17). For each neurotrophin or compound concentration, duplicate wells were counted and the resulting values averaged. Activity of each compound was confirmed by blinded counts. Counts were normalized to survival achieved with 25 ng/ml BDNF or to baseline survival. Fitting of dose-responsive curves was performed with Sigmaplot obtained from SYSTAT Software Inc. (Richmond, Calif., United States of America).

E17 hippocampal neurons = test: Aβ-induced death of hippocampal neurons; format: cell-based; conditions: Aβ1-42 10 μM
Protocol: Using previously well established protocols, Aβ was preincubated for 3 days in water to allow formation of oligomers. E17 hippocampal neurons were incubated for 5 days to allow for maturation prior to addition of Aβ with test compounds.

hippocampal neurons [2] = test: Hippocampal neuron survival with signaling pathway inhibitors; format: cell-based, mouse; conditions: BDNF/NGF 25 ng/ml, compounds 5 nM, 48 h
Protocol: as §1, §2
(§3) For all studies applying signaling inhibitors, p75^NTR antibodies or p75^NTR−/− neurons, survival was assessed at 48 hours.

p75^NTR-Fc = target: T1, p75^NTR-Fc (Homo sapiens, UniProt P08138); test: NGF/p75NTR-Fc binding by NGF ELISA, Gaddum/Schild fit
T1 construct: purchased R&D Systems
Protocol: (§4) Briefly, 96-well plates were incubated with 0.1 pmol (at 1 nM) of p75/Fc or TrkA/Fc recombinant protein obtained from R&D System (Minneapolis, Minn., United States of America) overnight at 4° C. followed by incubation with blocking buffer for 1 hour at room temperature. […] Plates were then washed five times with Tris-buffered saline (TBS) containing 0.05% Tween-20 and incubated with anti-NGF rabbit polyclonal antibody overnight at 4° C. Following five washes with TBS, wells were incubated for 2.5 hours at room temperature with anti-rabbit IgG HRP conjugate and washed five times. 3,3′,5,5′-tetramethyl-benzidine substrate was added and the optical density measured at 450 nm.
A regression analysis of NGF-p75^NTR binding in the presence of the p75-binding compounds was performed. The data was fit using the Nonlinear Regression module of Sigmaplot, to a modification of the Gaddum/Schild equation (adapted from Motulsky, H. J., and Christopoulos. A. (2003) A Practical Guide to Curve Fitting, 2nd edn. (San Diego, Calif., GraphPad Software, Inc.): […]

p75^NTR = target: T2, p75^NTR (Homo sapiens, UniProt P08138); test: proNGF binding to p75NTR by ELISA; conditions: 100 ng/ml proNGF
T2 construct: purchased R&D Systems
Protocol: as §4

TrkA-Fc = test: NGF/TrkA-Fc binding by NGF ELISA; conditions: up to 10,000 nM compound
Protocol: as §4

p75^NTR−/− cells = test: Survival of p75NTR+/+ versus p75NTR-/- hippocampal neurons; format: cell-based, mouse; conditions: neurotrophins 1.8 nM, compounds 5 nM
Protocol: as §1, §2, §3

hippocampal neurons [3] = test: Hippocampal neuron survival with p75NTR antisera (antibody inhibition); format: cell-based, mouse; conditions: antiserum 1:100, 48 h
Protocol: as §1, §2, §3

NFκB-p65 = NFκB-p65 phosphorylation western blot in hippocampal cultures; format: cell-based, mouse; conditions: 20 nM
Protocol: (§5) For assays of Trk, AKT, NFκB, and ERK activation, hippocampal neurons derived from E16-17 mice were cultured in poly-L-lysine coated six-well plates (Corning, Inc., Corning, N.Y., United States of America) in DMEM containing 10% FBS, followed by incubation in serum-free DMEM for 2 hours before addition of neurotrophins or compounds. At the indicated time points, neurons were harvested in lysis buffer consisting of: 20 mM Tris, pH 8.0, 137 mM NaCl, 1% Igepal CA-630, 10% glycerol, 1 mM PMSF, 10 μg/ml aprotinin, 1 μg/ml leupeptin, 500 μM orthovanadate (Zhou, J., Valletta, J. S., Grimes, M. L., Mobley, W. C. (1995) J Neurochem 65, 1146-1156).
(§6) Lysates were centrifuged, the supernatant collected, and protein concentrations determined using the BCA Protein Assay Reagent obtained from Pierce (Rockford, Ill., United States of America). Western blots were performed as described previously (Yang, T. et al. (2003) J Neurosci 23, 3353-3363). Western blot signals were detected using the ECL Chemiluminescence System obtained by Amersham (Piscataway, N.J., United States of America) (Yang, T. et al. (2003) J Neurosci 23, 3353-3363).

AKT = AKT activation western blot in hippocampal cultures; format: cell-based, mouse; conditions: 20 nM, relative to NGF
Protocol: as §5, §6

mature oligodendrocytes = test: Oligodendrocyte cell death assay (MBP/TUNEL) with or without proNGF; format: cell-based, rat; conditions: 24 h
Protocol: Cortical oligondendrocytes from rat pups were prepared as previously described (Yoon et al. (1998) J Neurosci 18, 3273-3281, Harrington, A. W., Kim, J. Y., Yoon, S. O. (2002) J Neurosci 22, 156-166). Cells were treated with recombinant, cleavage-resistant proNGF at 0.05 nM (2.8 ng/ml). Controls were treated with equivalent volumes of proNGF purification buffer containing 350 mM imidazole. 24 hours after treatment, the cells were fixed and processed for MBP and TUNEL staining as previously described (Beattie, M. S. et al. (2002) Neuron 36, 375-386). 200-250 cells were counted per well, for a minimum of 600 cells per experimental condition.

T1 sequence (P08138 with tags, fused parts or gaps limits assumed): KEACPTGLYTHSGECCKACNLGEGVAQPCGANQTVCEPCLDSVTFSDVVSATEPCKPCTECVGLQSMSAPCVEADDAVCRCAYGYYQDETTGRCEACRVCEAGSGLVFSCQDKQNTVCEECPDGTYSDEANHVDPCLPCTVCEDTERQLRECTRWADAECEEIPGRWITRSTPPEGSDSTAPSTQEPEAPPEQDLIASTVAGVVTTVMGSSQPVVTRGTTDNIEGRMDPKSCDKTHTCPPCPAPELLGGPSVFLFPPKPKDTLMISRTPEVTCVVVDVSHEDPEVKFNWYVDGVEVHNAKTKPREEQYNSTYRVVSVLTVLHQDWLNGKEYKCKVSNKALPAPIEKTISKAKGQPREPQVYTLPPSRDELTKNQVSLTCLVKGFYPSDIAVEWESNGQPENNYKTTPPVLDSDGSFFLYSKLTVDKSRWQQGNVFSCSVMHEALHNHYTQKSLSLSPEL
T2 sequence (P08138 with tags, fused parts or gaps limits assumed): as above

Compound	activity in DRG neuronal survival (chicken DRG neuronal)	neurotrophic activity (neuron survival response) [1]	protection against Aβ1-42-induced death (E17 hippocampal neurons; NGF at 100 pg/ml)	pEC50 (E17 hippocampal neurons; Hippocampal neuron, read-out: EC50 for blocking Aβ-induced death)	effect of PD98059 (ERK inhibitor) on survival promoted by the substance (hippocampal neurons [2]; PD98059 50 μM)	effect of SN50 (NFκB translocation inhibitor) on survival promoted by the substance (hippocampal neurons [2]; SN50 2.5 μg/ml)	compound concentration at which binding curve differs from 0 nM curve (P<0.0001) (p75^NTR-Fc; ANOVA with post-hoc Bonferroni/Dunn) [nM]	Schild coefficient (p75^NTR-Fc; Gaddum-Schild fit)	shift of the NGF/p75NTR-Fc binding curve (p75^NTR-Fc; increasing compound concentrations)	proNGF ELISA signal versus proNGF alone (p75^NTR; P<0.01)	decrement of proNGF binding to p75NTR (p75^NTR; at the highest concentration (range 1500 nM to 10,000 nM))	effect on NGF binding to TrkA-Fc (TrkA-Fc)	effect of p75NTR-deficiency on promotion of neuron survival by the substance (p75^NTR−/− cells)	effect of Ab 9651 on promotion of neuron survival by the substance (hippocampal neurons [3])	survival versus CM in the presence of Ab 9651 (hippocampal neurons [3])	increase in NFκB-p65 phosphorylation (NFκB-p65)	additive effect on survival with NGF ([1]; 5 nM compound along with 50 ng/ml NGF)	onset of AKT activation (AKT)	inhibition of proNGF-induced oligodendrocyte death (mature oligodendrocytes; 2.8 ng/ml (0.05 nM) proNGF)	promotion of oligodendrocyte cell death by compound alone (mature oligodendrocytes; absence of proNGF)
N=C(N)NC(=N)NCCNC(=N)NC(=N)N [Compound 7]	active	active	–	–	–	–	–	–	–	–	–	–	–	–	–	–	–	–	–	–
CN(C)CCCNC(=O)Cn1cnc2c1c(=O)n(C)c(=O)n2C [Compound 3]	–	–	blocks Aβ-induced death with a dose-response effect	~8.00	no significant decrease	significantly reduced	≥ 125	0.26 +/−0.01	significantly to the right	significantly less than proNGF alone	approximately 30%	did not affect; also recorded: no compound effects up to 10,000 nM	completely inhibits	completely blocked; also recorded: completely inhibits	not significant	approximately 1.5 fold	no additive effect on survival	slower than that of NGF	significantly inhibited; also recorded: blocked cell death	did not promote cell death
NCCNc1ccc([N+](=O)O)c(N2CCCCC2)c1 [Compound 1]	active	active	–	–	–	–	–	–	–	–	–	–	–	–	–	–	–	–	–	–
